Assay: Water required to dissolve 1 g of organic acid at 20° C. (Japanese Pharmacopoeia solubility)
Format: physicochemical
Method: The organic acid 1 g of which requires not less than 30 mL of water to dissolve in at 20° C. refers to such an organic acid that 30 mL or more of water is required to dissolve 1 g of the organic acid within 30 minutes at 20±5° C. by vigorous shaking for 30 seconds each time at 5-minute intervals, in accordance with the description about solubility in the Japanese Pharmacopoeia, 15th Edition, General Notices, page A-13.

O=C(O)/C=C/C(=O)O [Fumaric acid]
Water required to dissolve 1 g of organic acid in at 20° C.: ≥ 100 mL

Reference: US9084817B2, “Oral preparation comprising specific organic acid, and method for improvement in elution property and chemical stability of oral preparation” (TORAY INDUSTRIES, INC., priority 2007, dated 2015)
